Reference: US20090221651A1, “CHEMICAL PRECONDITIONING AS A PREVENTATIVE OR TREATMENT FOR EXCITOTOXIC SYNAPTIC DAMAGE” (priority 2005, published 2009)
Values joined by “and” are separate entries in the source; they are usually repeats but may differ in a detail not shown here. Equal values may be shown once. “Also recorded” adds a separate entry of the source.

How the values were obtained:
Type in all cases: cell-based, rat
CA1 pyramidal neurons [1] = assay: EPSP potentiation (LTP) after HFS in acute hippocampal slices, whole-cell patch clamp; conditions: for effect on synaptic potentiation / LTP in cPAF-exposed slices: BAPTA 5 mM, Ac-DEVD-CHO 10 μM, diazoxide 30 μM, PAF-R antagonists
Experimental: (§1) Imaging and LTP in acute hippocampal slices. Brains were removed from 17-30 day-old male Sprague-Dawley rats anesthetized with ketamine (180 μg/g), submerged them in ice-cold solution (in mM: NaCl 125, KCl 5, NaH2PO4 1.25, NaHCO3 28, CaCl2 0.5, MgCl2 4, D-glucose 25, kynurenic acid 1, bubbled with 95% O2/5% CO2), and cut 250 μm coronal slices using a vibroslice. Slices recovered in artificial cerebrospinal fluid (aCSF, in mM: NaCl 125, KCl 2.5, NaH2PO4 1.25, NaHCO3 25, CaCl2 2, MgCl2 1, D-glucose 25, bubbled with 95% O2/5% CO2) for >90 min prior to experiments.
(§2) Slices were transferred to a custom-made recording chamber perfused (1 ml/min) with aCSF containing 1 μM cPAF or vehicle. Membrane potentials from CA1 pyramidal neurons were recorded via whole-cell patch clamp, using 4-6 MΩ electrodes (filled with, mM: KCl 20, potassium gluconate 130, EGTA 0.5, HEPES10, MgSO4 2, ATP 2.5, GTP 0.5, pH 7.3) and a Multiclamp 700A amplifier with pClamp 9 software (Axon Instruments). Afferents were stimulated by constant current pulses (200 μs) via a bipolar stimulating electrode 50-200 μm away in the stratum radiatum. 10 μM bicuculline were included in the aCSF to isolate EPSPs, and adjusted stimulating intensity to elicit EPSPs 30% of maximal. After >10 min of test pulses (every 15 s), […] a high-frequency stimulus (HFS; three 1 s, 100 Hz trains, 20 s apart, at test-pulse intensity), then resumed test pulses for ≧50 min. […] Rising EPSP slope was used instead of peak amplitude as an index of synaptic efficacy to, avoid complication by action potentials evoked by some EPSPs after HFS. Amplitude (maximal sustained depolarization) and duration (at >25% maximal amplitude) of depolarization during HFS were also quantified.
(§3) Statistics. Differences in frequencies of dendritic beading were analyzed by Chi square, and changes in dendritic spine number by paired t-test. EPSP slope data were pooled over 10-minute intervals and used two-tailed t-tests to compare between groups or time points. A 0.05 significance level was used for all tests.

CA1 pyramidal neurons [2] = assay: Dendritic beading after high-frequency Schaffer collateral stimulation (HFS) in acute hippocampal slices; conditions: for rate of beading following HFS in cPAF-exposed neurons: 1 μM cPAF plus CV-3988 10 μM, BN52021 2 μM or L-NAME 100 μM; for effect on HFS-induced dendritic beading in cPAF-exposed slices: BAPTA 5 mM in pipette, Ac-DEVD-CHO 10 μM intracellular, L-NAME 100 μM, diazoxide 30 μM bath 40 to 60 min prior to HFS
Experimental: as §1, §2
Fluorescent images of dendrites from recorded cells were collected before and after HFS, after allowing 30 μM Alexa Fluor 568 hydrazide (Molecular Probes) in the recording electrode to fill the cell for >20 min. Using an external shutter to limit light exposure, image frames were captured at multiple focal planes and combined optimally-focused portions of these frames to display a composite image.
(§4) Dendrite morphology. For in vitro experiments pre- and post-exposure images of the same cells were compared. A neuron was considered beaded if its dendrites developed any focal swellings during the experiments (10, 14), though multiple dendrites were typically involved. Changes in spine number were determined by counting spines on the same dendrites before and after treatment.
as §3

[3] = test system: dissociated hippocampal cultures; assay: Dendritic beading in cultured neurons after depolarizing KCl pulses; conditions: for dendritic beading after 1 s KCl pulses in cPAF-exposed cultures: CNQX 10 μM together with AP-5 50 μM
Experimental: (§5) Primary hippocampal cultures and dendrite imaging. Dissociated hippocampal cultures from embryonic (E18) rats were prepared as previously described (53), plated on coverslips coated with poly-D-lysine and mouse laminin (reagents from Sigma-Aldrich unless otherwise noted) in Neurobasal plus B-27 media (GIBCO). After one week, 53 mM NaCl was added (to match solutions for physiological experiments) and antioxidants were removed from the media. Experiments were repeated using cultures from multiple dissections. Rodents were housed and treated in compliance with University of Rochester Committee on Animal Resources and NIH policies, and New York State and federal statutes.
(§6) At 20-24 days in vitro (DIV) neurons were transfected with EYFP (Clontech) or mRFP-1 (kind gift of Roger Tsien) vectors driven by CMV promoter, in a 1:2 ratio with Lipofectamine 2000 (Invitrogen). Serial fluorescence images of individual, live neurons (23-30 DIV) before and after exposure to 130 nM cPAF (Biomol) and/or synaptic stimulation by KCl were captured. For 60-hour exposure experiments, a 10 mM stock solution of cPAF (in EtOH) or vehicle was diluted into culture media. Neuronal survival was measured by Hoechst nuclear staining and propidium iodide exclusion.
For acute KCl stimulation experiments, coverslips were perfused in a custom-made chamber (200 μl) with bath solution (in mM: NaCl 139.5, KCl 2.5, CaCl2 2, MgCl2 1, glucose 24, HEPES 5, glycine 0.01, pH 7.3) at […], and exposed cultures to vehicle or cPAF for 20-90 min prior to stimulation. KCl (90 mM) was locally applied over the entire dendritic arbor of EYFP- or mRFP-expressing neurons in three 1- or 5-s pulses (10 s apart) using an 8-channel drug delivery system (ALA Scientific Instruments). In some experiments BN52021 (Biomol) or CNQX and AP-5 were added.
as §4, §3

hippocampal slices = assay: Rhodamine 123 fluorescence (mitochondrial depolarization) after HFS in hippocampal slices; conditions: 1 μM cPAF
Experimental: The present experiments measure changes in mitochondrial membrane potential during and after HFS in hippocampal slices using the rhodamine 123, a cationic dye that distributes across the mitochondrial membrane in a voltage-sensitive manner. When loaded into hippocampal slices at a dose of 26 μM, rhodamine 123 accumulates in the mitochondria at high concentrations that causes its fluorescence to quench; if the mitochondria are subsequently depolarized, rhodamine 123 is released into the cytoplasm and its fluorescent signal increases. Mitochondrial hyperpolarization, conversely, drives more dye from the cytoplasm into the mitochondria, increasing quenching and reducing the signal. Reliability of this interpretation was confirmed by control experiments using FCCP and oligomycin to respectively depolarize and hyperpolarize the mitochondria.

CA1 pyramidal neurons [4] = assay: Membrane potential and depolarization during HFS in hippocampal slices
Experimental: as §1
Slices were transferred to a custom-made recording chamber perfused (1 ml/min) with aCSF containing 1 μM cPAF or vehicle. Membrane potentials from CA1 pyramidal neurons were recorded via whole-cell patch clamp, using 4-6 MΩ electrodes (filled with, mM: KCl 20, potassium gluconate 130, EGTA 0.5, HEPES10, MgSO4 2, ATP 2.5, GTP 0.5, pH 7.3) and a Multiclamp 700A amplifier with pClamp 9 software (Axon Instruments). Afferents were stimulated by constant current pulses (200 μs) via a bipolar stimulating electrode 50-200 μm away in the stratum radiatum. 10 μM bicuculline were included in the aCSF to isolate EPSPs, and adjusted stimulating intensity to elicit EPSPs 30% of maximal. […] Amplitude (maximal sustained depolarization) and duration (at >25% maximal amplitude) of depolarization during HFS were also quantified.

[5] = test system: dissociated hippocampal cultures; assay: 60-hour cPAF exposure of dissociated hippocampal cultures: dendritic beading, spine number, neuronal survival; conditions: 130 nM cPAF, 60-hour exposure
Experimental: as §5, §6, §4, §3

[6] = cPAF-exposed slices plus compound (BN52021 2 μM, CV-3988 10 μM, Ac-DEVD-CHO 10 μM, diazoxide 30 μM), 40 to 50 min
[7] = cPAF-treated slices plus PAF-R antagonist
[8] = 130 nM cPAF, BN52021 10 μM pre-treatment

Molecule: CC1C(=O)OC2C(O)C34C5CC(C(C)(C)C)C36C(OC(=O)C6O)OC4(C(=O)O5)C12O (stereo not shown) [BN52021]
- EPSP potentiation following HFS (CA1 pyramidal neurons [1]; [6]): 1.29±0.05 relative to baseline
- rate of beading following HFS in cPAF-exposed neurons (CA1 pyramidal neurons [2]): 10%
- cells with dendritic beading elicited by HFS (CA1 pyramidal neurons [2]; [7]): 1 of 10
- dendritic beading after 1 s KCl pulses in cPAF-exposed cultures [3, 8]: no cells developed beading; also recorded: blocked the increase in vulnerability
- cells beaded after 5 s KCl pulses ([3]; cPAF-exposed, BN52021 10 μM pre-treatment): 86%

Molecule: CCCCCCCCCCCCCCCCCCNC(=O)OCC(COP(=O)([O-])OCC[n+]1ccsc1)OC (stereo not shown) [CV-3988]
- EPSP potentiation following HFS (CA1 pyramidal neurons [1]; [6]): 1.07±0.13 relative to baseline
- rate of beading following HFS in cPAF-exposed neurons (CA1 pyramidal neurons [2]): 14%
- cells with dendritic beading elicited by HFS (CA1 pyramidal neurons [2]; [7]): 1 of 7

Molecule: CCCCCCCCCCCCCCCCOC[C@H](COP(=O)([O-])OCC[N+](C)(C)C)OC(=O)NC [cPAF]
- increase in rhodamine 123 fluorescence compared to control slices (hippocampal slices): four-fold larger; also recorded: four-fold greater
- peak increase in rhodamine 123 fluorescence above baseline following HFS (hippocampal slices; CA1 stratum radiatum, 55 s after start of HFS): 5.90±1.86%
- EPSP potentiation following HFS (CA1 pyramidal neurons [1]; 1 μM cPAF, cells that did not develop dendritic beading, 40 to 50 min): 1.60±0.26 relative to baseline
- EPSP potentiation following HFS (CA1 pyramidal neurons [1]; 1 μM cPAF, cells whose dendrites beaded, 40 to 50 min): 0.84±0.12 relative to baseline
- baseline membrane potential (CA1 pyramidal neurons [4]; 1 μM cPAF for up to 7 hours): −63±3.6 mV
- duration of depolarization during HFS (CA1 pyramidal neurons [4]; cPAF-exposed neurons): 693 ± 296 ms
- recorded neurons with dendritic beading following HFS (CA1 pyramidal neurons [2]; 1 μM cPAF for 20 to 60 minutes prior to recording): 57%
- delay to appearance of HFS-induced dendritic beading (CA1 pyramidal neurons [2]; cPAF-exposed cells): 15 to 35 min
- cells with dendritic beading elicited by HFS (CA1 pyramidal neurons [2]; cPAF-treated slices): 11 of 19
- cells beaded in response to three 1 s KCl pulses ([3]; 130 nM cPAF, acute 20 to 90 min exposure): 90%
- decrease in numbers of dendritic spines [5]: 45.1±5.0% and 45±5%
- neuronal survival by Hoechst and propidium iodide staining [5]: 80.2±4.3%
- neurons that developed dendritic beading ([5]; serially-imaged cells): 56%

Molecule: O=C(O)CN(CC(=O)O)c1ccccc1OCCOc1ccccc1N(CC(=O)O)CC(=O)O [BAPTA]
- effect on synaptic potentiation / LTP in cPAF-exposed slices (CA1 pyramidal neurons [1]): eliminated synaptic potentiation
- effect on HFS-induced dendritic beading in cPAF-exposed slices (CA1 pyramidal neurons [2]): prevented dendritic beading; also recorded: eliminated dendritic beading

Molecule: COC(=O)[C@@H](N)CCCNC(=N)N[N+](=O)[O-] [L-NAME]
- rate of beading following HFS in cPAF-exposed neurons (CA1 pyramidal neurons [2]): 57%
- effect on HFS-induced dendritic beading in cPAF-exposed slices (CA1 pyramidal neurons [2]): no protection; also recorded: no effect

Molecule: N#Cc1cc2[nH]c(=O)c(=O)[nH]c2cc1[N+](=O)[O-] [CNQX]
- dendritic beading after 1 s KCl pulses in cPAF-exposed cultures [3, 8]: prevented

Molecule: NC(CCCP(=O)(O)O)C(=O)O (stereo not shown) [AP-5]
- dendritic beading after 1 s KCl pulses in cPAF-exposed cultures [3, 8]: prevented

Molecule: Ac-DEVD-CHO
- effect on synaptic potentiation / LTP in cPAF-exposed slices (CA1 pyramidal neurons [1]): failed to rescue LTP; also recorded: failed to restore a lasting potentiation
- EPSP potentiation following HFS (CA1 pyramidal neurons [1]; cPAF-exposed slices plus Ac-DEVD-CHO 10 μM, 0 to 10 min): 1.97±0.28 relative to baseline
- EPSP potentiation following HFS (CA1 pyramidal neurons [1]; [6]): 1.22±0.19 relative to baseline
- effect on HFS-induced dendritic beading in cPAF-exposed slices (CA1 pyramidal neurons [2]): prevented dendritic beading
